From ChEMBL document CHEMBL4196007, “Design, synthesis and biological evaluation of novel 4-aminoquinazolines as dual target inhibitors of EGFR-PI3Kα” (Eur J Med Chem, 2018) come the findings set out here.

Assay [1] deals with Phosphatidylinositol 4,5-bisphosphate 3-kinase catalytic subunit beta isoform (Homo sapiens, UniProt P42338). Kind of assay: Inhibition of PI3K p110beta (unknown origin) using PIP2 as substrate by ELISA. (In general: ELISA stands for enzyme-linked immunosorbent assay.)
For another assay, the system named is SK-HEP1. The assay is described as follows: Cytotoxicity against human SKHEP1 cells after 72 hrs by SRB assay. Type of assay: functional, cell-based. The conditions noted are these: SK-HEP1, 72 h.
The test system of assay [2] is BT-549. The assay is described as follows: Cytotoxicity against human BT549 cells after 72 hrs by SRB assay. Type of assay: functional, cell-based. The conditions noted are these: BT-549, 72 h.
The target in assay [3] is T1, Phosphatidylinositol 4,5-bisphosphate 3-kinase catalytic subunit delta isoform (Homo sapiens, UniProt O00329).
T1 sequence (O00329 whole entry): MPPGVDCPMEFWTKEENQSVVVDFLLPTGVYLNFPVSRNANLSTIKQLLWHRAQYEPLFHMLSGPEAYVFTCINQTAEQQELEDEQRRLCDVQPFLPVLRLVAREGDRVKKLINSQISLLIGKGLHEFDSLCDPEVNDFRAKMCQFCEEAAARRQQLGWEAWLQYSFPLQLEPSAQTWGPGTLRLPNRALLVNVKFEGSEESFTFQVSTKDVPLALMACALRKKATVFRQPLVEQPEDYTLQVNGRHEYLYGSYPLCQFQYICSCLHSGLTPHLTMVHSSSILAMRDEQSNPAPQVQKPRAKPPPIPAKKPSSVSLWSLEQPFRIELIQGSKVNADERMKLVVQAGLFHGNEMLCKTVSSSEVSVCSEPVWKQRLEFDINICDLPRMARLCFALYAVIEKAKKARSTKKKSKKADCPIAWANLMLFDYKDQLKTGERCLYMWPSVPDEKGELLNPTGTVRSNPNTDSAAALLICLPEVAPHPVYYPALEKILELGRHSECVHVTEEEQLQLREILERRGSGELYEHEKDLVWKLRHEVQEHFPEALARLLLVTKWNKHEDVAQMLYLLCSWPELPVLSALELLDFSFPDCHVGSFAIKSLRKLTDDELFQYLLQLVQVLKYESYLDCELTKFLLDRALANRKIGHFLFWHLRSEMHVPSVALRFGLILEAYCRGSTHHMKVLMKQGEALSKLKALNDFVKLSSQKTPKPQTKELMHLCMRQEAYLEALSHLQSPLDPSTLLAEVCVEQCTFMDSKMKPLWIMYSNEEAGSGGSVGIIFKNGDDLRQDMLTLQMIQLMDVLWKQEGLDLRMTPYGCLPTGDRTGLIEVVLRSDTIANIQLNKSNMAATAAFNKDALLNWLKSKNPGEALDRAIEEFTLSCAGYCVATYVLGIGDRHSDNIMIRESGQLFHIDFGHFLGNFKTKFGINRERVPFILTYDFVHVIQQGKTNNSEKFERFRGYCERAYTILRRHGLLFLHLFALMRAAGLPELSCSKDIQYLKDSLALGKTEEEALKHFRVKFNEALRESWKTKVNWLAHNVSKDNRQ
Kind of assay: Inhibition of PI3K p110delta (unknown origin) using PIP2 as substrate by ELISA.

A further assay relates to A549. The assay is described as follows: Cytotoxicity against human A549 cells after 72 hrs by SRB assay. The conditions noted are these: A549, 72 h. Type of assay: functional, cell-based. (Sulforhodamine B stains cellular protein and so reports cell mass.)
The target of assay [4] is Epidermal growth factor receptor (Homo sapiens, UniProt P00533). Kind of assay: Inhibition of EGFR (unknown origin) using FAM-labeled peptide as substrate preincubated for 10 mins followed by substrate addition and measured after 1 hr by mobility shift assay.
For assay [5], the target named is Phosphatidylinositol 4,5-bisphosphate 3-kinase catalytic subunit alpha isoform (Homo sapiens, UniProt P42336). Kind of assay: Inhibition of PI3K p110alpha (unknown origin) using PIP2 as substrate by ELISA.
The next assay has as its system SNU-638. The assay is described as follows: Cytotoxicity against human SNU638 cells after 72 hrs by SRB assay. Type of assay: functional, cell-based. The conditions noted are these: SNU-638, 72 h.
The subject of the next assay is HCT-116. Kind of assay: Cytotoxicity against human HCT116 cells after 72 hrs by SRB assay. Format: functional, cell-based. The conditions noted are these: HCT-116, 72 h.
Assay [6] deals with Phosphatidylinositol 4,5-bisphosphate 3-kinase catalytic subunit gamma isoform (Homo sapiens, UniProt P48736). Kind of assay: Inhibition of PI3K p110gamma (unknown origin) using PIP2 as substrate by ELISA.
Another assay deals with MCF7. The assay is described as follows: Cytotoxicity against human MCF7 cells after 72 hrs by SRB assay. Type of assay: functional, cell-based. To be noted: MCF7, 72 h.
Assay [7] concerns BT-549. The assay is described as follows: Cell cycle arrest in human BT549 cells assessed as accumulation of cells at S phase at 1 uM after 24 hrs by propidium iodide staining-based flow cytometric analysis (reference value: 25.10%). Type of assay: functional. On the technique in general: Flow cytometry measures light scatter and fluorescence of single cells or particles in a stream.

For assay [8], the system named is BT-549. The assay is described as follows: Cell cycle arrest in human BT549 cells assessed as accumulation of cells at G2 phase at 2.5 uM after 24 hrs by propidium iodide staining-based flow cytometric analysis (reference value: 18.96%). Format: functional.
The test system of assay [9] is BT-549. The assay is described as follows: Inhibition of colony formation in human BT549 cells after 2 weeks by crystal violet staining-based assay. Format: functional, cell-based.
In assay [10] the test system is BT-549. Kind of assay: Induction of apoptosis in human BT549 cells assessed as late apoptotic cells at 5 uM by Annexin V-FITC/propidium iodide staining-based flow cytometric analysis relative to control. Format: functional.
In assay [11] the test system is BT-549. Kind of assay: Induction of apoptosis in human BT549 cells assessed as early apoptotic cells at 1 uM by Annexin V-FITC/propidium iodide staining-based flow cytometric analysis relative to control. Type of assay: functional.
The test system of assay [12] is BT-549. The assay is described as follows: Induction of apoptosis in human BT549 cells assessed as early apoptotic cells at 5 uM by Annexin V-FITC/propidium iodide staining-based flow cytometric analysis relative to control. Format: functional.
For assay [13], the system named is BT-549. The assay is described as follows: Induction of apoptosis in human BT549 cells assessed as late apoptotic cells at 1 uM by Annexin V-FITC/propidium iodide staining-based flow cytometric analysis relative to control. Format: functional.
For assay [14], the system named is BT-549. Kind of assay: Cell cycle arrest in human BT549 cells assessed as accumulation of cells at G2 phase at 1 uM after 24 hrs by propidium iodide staining-based flow cytometric analysis (reference value: 18.96%). Type of assay: functional.
The subject of assay [15] is BT-549. Kind of assay: Cell cycle arrest in human BT549 cells assessed as accumulation of cells at G1 phase at 2.5 uM after 24 hrs by propidium iodide staining-based flow cytometric analysis (reference value: 55.93%). Type of assay: functional.
Assay [16] relates to BT-549. The assay is described as follows: Induction of apoptosis in human BT549 cells assessed as chromatin condensation at 1 to 5 uM after 24 hrs by DAPI staining-based fluorescence microscopic analysis. Format: functional, cell-based.
Assay [17] concerns BT-549. The assay is described as follows: Cell cycle arrest in human BT549 cells assessed as accumulation of cells at S phase at 5 uM after 24 hrs by propidium iodide staining-based flow cytometric analysis (reference value: 25.10%). Type of assay: functional.
For the next assay, the species on record is Homo sapiens. Kind of assay: Inhibition of PI3K in human BT549 cells assessed as decrease in Akt phosphorylation at Ser473 by Western blot analysis. Format: cell-based.
For assay [18], the system named is BT-549. The assay is described as follows: Cell cycle arrest in human BT549 cells assessed as accumulation of cells at G1 phase at 1 uM after 24 hrs by propidium iodide staining-based flow cytometric analysis (reference value: 55.93%). Type of assay: functional.
In assay [19] the test system is BT-549. Kind of assay: Inhibition of colony formation in human BT549 cells assessed as colony formation rate at 5 uM after 2 weeks by crystal violet staining-based assay relative to control. Format: functional. Also noted: scale not given: the % may be the effect or the level left.
For assay [20], the system named is BT-549. Kind of assay: Induction of apoptosis in human BT549 cells assessed as nuclear fragmentation at 1 to 5 uM after 24 hrs by DAPI staining-based fluorescence microscopic analysis. Format: functional, cell-based.
Assay [21] deals with BT-549. The assay is described as follows: Induction of apoptosis in human BT549 cells assessed as early apoptotic cells at 2.5 uM by Annexin V-FITC/propidium iodide staining-based flow cytometric analysis relative to control. Type of assay: functional.
The test system of assay [22] is BT-549. The assay is described as follows: Cell cycle arrest in human BT549 cells assessed as accumulation of cells at G1 phase at 5 uM after 24 hrs by propidium iodide staining-based flow cytometric analysis (reference value: 55.93%). Type of assay: functional.
The test system of assay [23] is BT-549. Kind of assay: Cell cycle arrest in human BT549 cells assessed as accumulation of cells at G2 phase at 5 uM after 24 hrs by propidium iodide staining-based flow cytometric analysis (reference value: 18.96%). Format: functional.
The subject of assay [24] is BT-549. Kind of assay: Inhibition of colony formation in human BT549 cells assessed as colony formation rate at 2.5 uM after 2 weeks by crystal violet staining-based assay relative to control. Format: functional. Also noted: scale not given: the % may be the effect or the level left.
For assay [25], the system named is BT-549. Kind of assay: Cell cycle arrest in human BT549 cells assessed as accumulation of cells at S phase at 2.5 uM after 24 hrs by propidium iodide staining-based flow cytometric analysis (reference value: 25.10%). Type of assay: functional.
The subject of assay [26] is BT-549. Kind of assay: Induction of apoptosis in human BT549 cells assessed as late apoptotic cells at 2.5 uM by Annexin V-FITC/propidium iodide staining-based flow cytometric analysis relative to control. Type of assay: functional.
The test system of assay [27] is BT-549. Kind of assay: Cell cycle arrest in human BT549 cells assessed as accumulation of cells at G1 phase after 24 hrs by propidium iodide staining-based flow cytometric analysis. Format: functional.

Activity calls are given as the source filed them. The rule behind the calls is not given here.

Chain of Phosphatidylinositol 4,5-bisphosphate 3-kinase catalytic subunit alpha isoform (P42336 whole entry, canonical isoform): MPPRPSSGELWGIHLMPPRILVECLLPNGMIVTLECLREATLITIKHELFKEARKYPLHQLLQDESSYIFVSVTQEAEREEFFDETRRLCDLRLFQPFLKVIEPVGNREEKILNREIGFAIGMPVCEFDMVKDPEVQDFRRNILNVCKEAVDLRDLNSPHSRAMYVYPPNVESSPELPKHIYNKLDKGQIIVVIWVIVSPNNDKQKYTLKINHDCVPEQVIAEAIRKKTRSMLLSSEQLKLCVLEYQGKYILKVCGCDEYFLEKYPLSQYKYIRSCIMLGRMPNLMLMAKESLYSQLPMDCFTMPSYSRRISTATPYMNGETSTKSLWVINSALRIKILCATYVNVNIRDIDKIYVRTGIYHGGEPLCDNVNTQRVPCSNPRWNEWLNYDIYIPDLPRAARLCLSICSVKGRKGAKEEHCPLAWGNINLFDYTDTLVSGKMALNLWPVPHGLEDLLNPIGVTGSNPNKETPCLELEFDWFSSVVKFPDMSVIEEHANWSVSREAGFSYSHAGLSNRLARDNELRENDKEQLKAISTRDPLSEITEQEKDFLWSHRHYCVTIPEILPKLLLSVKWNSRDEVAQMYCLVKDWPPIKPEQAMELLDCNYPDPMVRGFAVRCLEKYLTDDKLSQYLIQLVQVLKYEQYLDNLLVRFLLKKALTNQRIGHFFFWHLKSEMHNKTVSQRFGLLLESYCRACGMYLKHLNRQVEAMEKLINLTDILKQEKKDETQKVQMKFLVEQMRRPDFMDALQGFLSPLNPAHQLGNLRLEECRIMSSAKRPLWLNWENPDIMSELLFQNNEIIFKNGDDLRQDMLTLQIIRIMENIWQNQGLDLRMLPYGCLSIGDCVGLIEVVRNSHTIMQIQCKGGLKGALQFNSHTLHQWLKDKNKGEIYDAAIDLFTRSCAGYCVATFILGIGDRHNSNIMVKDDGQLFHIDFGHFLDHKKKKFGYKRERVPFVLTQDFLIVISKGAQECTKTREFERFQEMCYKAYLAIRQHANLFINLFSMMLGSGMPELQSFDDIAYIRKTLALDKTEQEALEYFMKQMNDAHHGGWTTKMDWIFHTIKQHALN
Chain of Phosphatidylinositol 4,5-bisphosphate 3-kinase catalytic subunit beta isoform (P42338 whole entry, canonical isoform): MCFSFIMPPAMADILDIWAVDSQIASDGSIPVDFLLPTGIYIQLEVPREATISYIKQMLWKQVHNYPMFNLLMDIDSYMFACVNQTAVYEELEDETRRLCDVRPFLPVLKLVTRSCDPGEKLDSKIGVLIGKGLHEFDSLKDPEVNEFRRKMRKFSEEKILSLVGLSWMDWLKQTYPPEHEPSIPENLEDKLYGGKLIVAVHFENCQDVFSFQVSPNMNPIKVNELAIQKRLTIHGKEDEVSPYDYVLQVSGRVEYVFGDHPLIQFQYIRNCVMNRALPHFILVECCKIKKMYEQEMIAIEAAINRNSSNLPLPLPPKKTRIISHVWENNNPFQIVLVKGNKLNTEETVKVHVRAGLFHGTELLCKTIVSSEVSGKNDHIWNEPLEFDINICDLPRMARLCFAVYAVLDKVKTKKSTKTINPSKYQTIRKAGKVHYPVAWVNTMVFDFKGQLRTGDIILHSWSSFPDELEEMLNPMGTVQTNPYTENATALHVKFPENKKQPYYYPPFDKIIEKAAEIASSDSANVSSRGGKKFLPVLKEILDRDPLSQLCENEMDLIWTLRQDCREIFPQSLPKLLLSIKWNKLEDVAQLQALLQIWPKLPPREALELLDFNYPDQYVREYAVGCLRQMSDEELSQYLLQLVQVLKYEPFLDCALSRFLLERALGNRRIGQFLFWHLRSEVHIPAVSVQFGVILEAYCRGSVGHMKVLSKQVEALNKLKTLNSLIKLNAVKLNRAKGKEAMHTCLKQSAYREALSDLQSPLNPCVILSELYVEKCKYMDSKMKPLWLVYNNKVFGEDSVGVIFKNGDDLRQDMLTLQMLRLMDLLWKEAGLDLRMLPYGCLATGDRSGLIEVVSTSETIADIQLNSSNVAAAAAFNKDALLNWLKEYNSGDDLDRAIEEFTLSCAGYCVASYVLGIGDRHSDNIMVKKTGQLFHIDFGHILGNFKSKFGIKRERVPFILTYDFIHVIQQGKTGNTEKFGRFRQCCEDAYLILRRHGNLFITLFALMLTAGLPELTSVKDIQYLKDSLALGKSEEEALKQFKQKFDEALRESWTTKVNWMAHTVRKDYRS
Chain of Phosphatidylinositol 4,5-bisphosphate 3-kinase catalytic subunit gamma isoform (P48736 whole entry, canonical isoform): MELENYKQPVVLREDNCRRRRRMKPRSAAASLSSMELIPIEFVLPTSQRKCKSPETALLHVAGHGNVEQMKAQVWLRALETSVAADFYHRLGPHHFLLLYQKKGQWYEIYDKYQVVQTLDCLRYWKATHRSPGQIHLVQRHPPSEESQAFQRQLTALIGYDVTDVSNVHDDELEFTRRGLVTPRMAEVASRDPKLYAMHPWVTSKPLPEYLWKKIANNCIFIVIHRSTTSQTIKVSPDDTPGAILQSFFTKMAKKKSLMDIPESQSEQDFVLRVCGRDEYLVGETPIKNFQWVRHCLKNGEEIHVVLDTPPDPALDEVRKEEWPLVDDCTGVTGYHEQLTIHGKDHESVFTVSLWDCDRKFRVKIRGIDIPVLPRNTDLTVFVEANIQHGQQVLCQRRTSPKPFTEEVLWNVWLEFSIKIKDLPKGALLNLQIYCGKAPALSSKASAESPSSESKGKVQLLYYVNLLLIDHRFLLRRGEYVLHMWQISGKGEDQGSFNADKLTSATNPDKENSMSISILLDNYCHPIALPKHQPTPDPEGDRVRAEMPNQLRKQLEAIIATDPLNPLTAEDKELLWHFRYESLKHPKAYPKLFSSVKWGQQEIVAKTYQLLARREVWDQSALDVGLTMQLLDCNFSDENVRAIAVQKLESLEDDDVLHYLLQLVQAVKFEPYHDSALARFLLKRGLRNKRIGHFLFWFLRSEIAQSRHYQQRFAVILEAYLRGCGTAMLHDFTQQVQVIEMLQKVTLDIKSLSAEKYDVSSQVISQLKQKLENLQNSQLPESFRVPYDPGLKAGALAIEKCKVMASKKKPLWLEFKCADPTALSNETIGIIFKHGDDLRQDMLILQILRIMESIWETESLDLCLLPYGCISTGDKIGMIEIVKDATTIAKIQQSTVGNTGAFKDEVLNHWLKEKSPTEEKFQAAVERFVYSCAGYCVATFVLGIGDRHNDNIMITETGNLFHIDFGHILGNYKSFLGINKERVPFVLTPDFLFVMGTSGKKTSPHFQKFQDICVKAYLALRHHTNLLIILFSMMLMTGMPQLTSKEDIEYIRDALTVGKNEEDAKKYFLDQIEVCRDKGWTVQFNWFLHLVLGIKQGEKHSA
Chain of Epidermal growth factor receptor (P00533 whole entry, canonical isoform): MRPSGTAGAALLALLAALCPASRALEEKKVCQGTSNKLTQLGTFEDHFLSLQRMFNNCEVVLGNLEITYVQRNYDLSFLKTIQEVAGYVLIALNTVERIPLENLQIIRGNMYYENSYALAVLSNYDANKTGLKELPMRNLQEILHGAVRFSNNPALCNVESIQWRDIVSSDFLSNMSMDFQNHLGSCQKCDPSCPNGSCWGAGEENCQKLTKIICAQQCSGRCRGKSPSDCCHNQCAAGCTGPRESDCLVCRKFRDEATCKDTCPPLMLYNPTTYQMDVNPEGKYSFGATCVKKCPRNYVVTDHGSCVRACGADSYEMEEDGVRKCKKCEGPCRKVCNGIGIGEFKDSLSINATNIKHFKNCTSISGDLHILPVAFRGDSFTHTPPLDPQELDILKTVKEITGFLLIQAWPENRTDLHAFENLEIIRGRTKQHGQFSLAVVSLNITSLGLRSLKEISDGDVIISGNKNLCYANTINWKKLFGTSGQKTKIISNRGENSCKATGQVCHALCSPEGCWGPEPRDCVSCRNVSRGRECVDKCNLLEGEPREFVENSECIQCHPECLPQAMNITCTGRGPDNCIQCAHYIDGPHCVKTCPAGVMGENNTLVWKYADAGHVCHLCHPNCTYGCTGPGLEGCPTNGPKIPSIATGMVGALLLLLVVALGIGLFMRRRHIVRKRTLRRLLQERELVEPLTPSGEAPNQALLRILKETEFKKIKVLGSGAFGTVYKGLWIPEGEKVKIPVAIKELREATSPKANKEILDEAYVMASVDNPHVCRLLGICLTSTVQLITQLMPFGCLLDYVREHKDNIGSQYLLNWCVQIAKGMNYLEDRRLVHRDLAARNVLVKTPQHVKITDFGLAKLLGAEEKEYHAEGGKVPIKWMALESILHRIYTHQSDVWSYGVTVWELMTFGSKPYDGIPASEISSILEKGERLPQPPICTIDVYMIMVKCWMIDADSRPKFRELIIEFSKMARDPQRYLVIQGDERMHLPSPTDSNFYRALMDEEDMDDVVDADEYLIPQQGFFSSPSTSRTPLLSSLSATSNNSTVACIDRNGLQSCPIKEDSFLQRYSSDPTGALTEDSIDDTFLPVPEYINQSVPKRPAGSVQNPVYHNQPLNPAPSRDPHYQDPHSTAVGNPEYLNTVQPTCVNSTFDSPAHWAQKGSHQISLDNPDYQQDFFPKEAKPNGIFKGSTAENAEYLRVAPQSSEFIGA

Broadly, the IC50 is the concentration that inhibits the measured activity by half. Regarding `CCS(=O)(=O)Nc1cc(-c2ccc3ncnc(Nc4cccc(C(=O)OC)c4)c3c2)cnc1OC`, the IC50 amounted to 4.94 µM in assay [1]; 2.4 µM in the assay on SK-HEP1; 1.08 µM in the assay on BT-549 [2]; 4.36 µM in assay [3]; 1.1 µM with A549; 0.409 µM in [4]. For the same molecule, the IC50 in [5] was found to be 0.165 µM; in the assay on SNU-638, 1.12 µM; with HCT-116 it was 0.4 µM; in [6], 1.78 µM; with MCF7 it was 10.1 µM.

Take `CCS(=O)(=O)Nc1cc(-c2ccc3ncnc(Nc4ccc(Cl)c(C(=O)OC)c4)c3c2)cnc1OC`: the IC50 in the assay on SK-HEP1 was found to be 7.06 µM; in the assay on BT-549 [2], 2.36 µM; in the assay on A549, 2.13 µM; in the assay with SNU-638 it was 2.2 µM; in the assay on HCT-116 it was 3.13 µM; with MCF7, 1.43 µM.

For the molecule `CCS(=O)(=O)Nc1cc(-c2ccc3ncnc(Nc4ccc(C(=O)OC)c(OC)c4)c3c2)cnc1OC`, the IC50 in the assay on SK-HEP1 was found to be 0.83 µM; in the assay with BT-549 [2] it was 3.76 µM; in the assay with A549, 3.35 µM; in the assay on SNU-638, 3.44 µM; in the assay on HCT-116, 1.69 µM; with MCF7, 10.9 µM.

Consider `CCS(=O)(=O)Nc1cc(-c2ccc3ncnc(Nc4ccc(OC(F)(F)F)cc4)c3c2)cnc1OC`, for which the IC50 stood at 6.14 µM with SK-HEP1; 8.24 µM with BT-549 [2]; 25.4 µM in the assay on A549; 22.4 µM in the assay on SNU-638; 16.6 µM in the assay with HCT-116; 23.7 µM in the assay on MCF7.

For `CCCCS(=O)(=O)Nc1cc(-c2ccc3ncnc(Nc4cccc(C(=O)OCC)c4)c3c2)cnc1OC`, the IC50 in the assay with SK-HEP1 amounted to 21.6 µM; with BT-549 [2], 37.2 µM; in the assay with A549, 42.3 µM; with SNU-638, 25.2 µM; in the assay on HCT-116 it was 26.7 µM; with MCF7 it was 36.4 µM.

With `CCS(=O)(=O)Nc1cc(-c2ccc3ncnc(Nc4ccc(F)c(Cl)c4)c3c2)cnc1OC`, the IC50 in assay [1] was 9.41 µM; in the assay with SK-HEP1 it was 6.1 µM; with BT-549 [2] it was 1.02 µM; in assay [3] it was 8.67 µM; in the assay with A549 it was 8.23 µM; in assay [5], 0.317 µM. For the same molecule, the IC50 stood at 4.1 µM in the assay on SNU-638, 5.6 µM with HCT-116, 3.56 µM in assay [6] and 5.59 µM with MCF7. The Activity in the assay with BT-549 [7] came out at 6.52%; with BT-549 [8], 17.77%; in the assay on BT-549 [10], 2.27%; in the assay with BT-549 [11], 30.52%; in the assay with BT-549 [12], 54.71%; with BT-549 [13] it was 1.79%. The Activity in the assay on BT-549 [14] is 24.16%; in the assay with BT-549 [15], 75.36%; in the assay on BT-549 [17], 0.92%; in the assay with BT-549 [18], 69.31%; with BT-549 [19], 25.7%; with BT-549 [21], 56.69%. The Activity is 80.7% in the assay with BT-549 [22]; 18.37% with BT-549 [23]; 55.6% in the assay with BT-549 [24]; 6.86% in the assay with BT-549 [25]; 2.05% in the assay with BT-549 [26]; “Dose-dependent effect” in the assay with BT-549 [27]. In addition, the inhibition entry in the assay on BT-549 [9] and in the assay filed under Homo sapiens was “Dose-dependent effect” throughout. Moreover, the outcome in the assay on BT-549 [16] and in the assay with BT-549 [20] was Active.
